According to publication PMC8001353, “Tryptophanol-Derived Oxazolopyrrolidone Lactams as Potential Anticancer Agents against Gastric Adenocarcinoma” (Pharmaceuticals, 2021):

tested on: human gastric adenocarcinoma (AGS) cell line; experiment: MTT reduction assay, cell viability / cytotoxicity in AGS cell line; format: cell-based; details: AGS cell line, cell viability, MTT, 48 h incubation, 100 µM, mean ± SD
Procedure: The cytotoxicity was assessed in different cell lines with the endpoint MTT, using previously reported procedure. The following cells were obtained from the American Type Culture Collection: human embryonic kidney epithelial cell line (HEK 293T, ATCC HBT-22™), breast cancer cell line (MDA-MB-231, ATCC HTB-26™), osteosarcoma cell line (MG-63, ATCC CRL-1427™), gastric adenocarcinoma cell line (AGS, ATTC CRL-1739TM), prostate cancer cell line (DU-145, ATTC HTB-81™), and lung carcinoma cell line (A-549, ATCC CCL-185™). All cell lines were seeded at 2 × 10^4 cells/well with exception of A-549 cell line, which was seeded at 5 × 10^3 cells/well.

In order of rising “% CV at 100 µM” value:
1. O=C1CC[C@]2(c3ccc(Cl)cc3)OC[C@@H](Cc3c[nH]c4ccccc34)N12 [Compound 7c, (3R,7aR)-3-((1H-indol-3-yl)methyl)-7a-(4-chlorophenyl)tetrahydropyrrolo[2,1-b]oxazol-5(6H)-one]  6 ± 1%
2. O=C1CC[C@@]2(c3ccc(Cl)cc3)OC[C@H](Cc3c[nH]c4ccccc34)N12 [Compound 8c, (3S,7aS)-3-((1H-indol-3-yl)methyl)-7a-(4-chlorophenyl)tetrahydropyrrolo[2,1-b]oxazol-5(6H)-one]  11 ± 1%
3. O=C1CC[C@]2(c3ccc(Br)cc3)OC[C@@H](Cc3c[nH]c4ccccc34)N12 [Compound 7d, (3R,7aR)-3-((1H-indol-3-yl)methyl)-7a-(4-bromophenyl)tetrahydropyrrolo[2,1-b]oxazol-5(6H)-one]  14 ± 3%
4. Cc1ccc([C@]23CCC(=O)N2[C@H](Cc2c[nH]c4ccccc24)CO3)cc1 [Compound 7e, (3R,7aR)-3-((1H-indol-3-yl)methyl)-7a-(p-tolyl)tetrahydropyrrolo[2,1-b]oxazol-5(6H)-one]  14 ± 2%
5. COc1ccc([C@]23CCC(=O)N2[C@H](Cc2c[nH]c4ccccc24)CO3)cc1 [Compound 7f, (3R,7aR)-3-((1H-indol-3-yl)methyl)-7a-(4-methoxyphenyl)tetrahydropyrrolo[2,1-b]oxazol-5(6H)-one]  18 ± 2%
6. O=C1CC[C@@]2(c3ccc(F)cc3)OC[C@H](Cc3c[nH]c4ccccc34)N12 [Compound 8b, (3S,7aS)-3-((1H-indol-3-yl)methyl)-7a-(4-fluorophenyl)tetrahydropyrrolo[2,1-b]oxazol-5(6H)-one]  22 ± 4%
7. O=C1CC[C@@]2(c3ccc(Br)cc3)OC[C@H](Cc3c[nH]c4ccccc34)N12 [Compound 8d, (3S,7aS)-3-((1H-indol-3-yl)methyl)-7a-(4-bromophenyl)tetrahydropyrrolo[2,1-b]oxazol-5(6H)-one]  25 ± 4%
8. COc1ccc([C@@]23CCC(=O)N2[C@@H](Cc2c[nH]c4ccccc24)CO3)cc1 [Compound 8f, (3S,7aS)-3-((1H-indol-3-yl)methyl)-7a-(4-methoxyphenyl)tetrahydropyrrolo[2,1-b]oxazol-5(6H)-one]  30 ± 4%
9. O=C1CC[C@]2(c3ccccc3)OC[C@@H](Cc3c[nH]c4ccccc34)N12 [Compound 7a, (3R,7aR)-3-((1H-indol-3-yl)methyl)-7a-phenyltetrahydropyrrolo[2,1-b]oxazol-5(6H)-one]  50 ± 5%
10. O=C1CC[C@]2(c3ccc(F)cc3)OC[C@@H](Cc3c[nH]c4ccccc34)N12 [Compound 7b, (3R,7aR)-3-((1H-indol-3-yl)methyl)-7a-(4-fluorophenyl)tetrahydropyrrolo[2,1-b]oxazol-5(6H)-one]  50 ± 8%
11. O=C1CC[C@@]2(c3ccccc3)OC[C@H](Cc3c[nH]c4ccccc34)N12 [Compound 8a, (3S,7aS)-3-((1H-indol-3-yl)methyl)-7a-phenyltetrahydropyrrolo[2,1-b]oxazol-5(6H)-one]  58 ± 4%
12. Cc1ccc([C@@]23CCC(=O)N2[C@@H](Cc2c[nH]c4ccccc24)CO3)cc1 [Compound 8e, (3S,7aS)-3-((1H-indol-3-yl)methyl)-7a-(p-tolyl)tetrahydropyrrolo[2,1-b]oxazol-5(6H)-one]  60 ± 3%
13. CS(=O)(=O)c1ccc([C@@]23CCC(=O)N2[C@@H](Cc2c[nH]c4ccccc24)CO3)cc1 [Compound 8g, (3S,7aS)-3-((1H-indol-3-yl)methyl)-7a-(4-(methylsulfonyl)phenyl)tetrahydropyrrolo[2,1-b]oxazol-5(6H)-one]  91 ± 11%
14. CS(=O)(=O)c1ccc([C@]23CCC(=O)N2[C@H](Cc2c[nH]c4ccccc24)CO3)cc1 [Compound 7g, (3R,7aR)-3-((1H-indol-3-yl)methyl)-7a-(4-(methylsulfonyl)phenyl)tetrahydropyrrolo[2,1-b]oxazol-5(6H)-one]  94 ± 12%

same assay, conditions: Homo sapiens; AGS cell line, cell viability, MTT, 48 h incubation, 50 µM, mean ± SD; read-out: % CV at 50 µM

In order of falling viability at 50 µM:
1. COc1ccc([C@]23CCC(=O)N2[C@H](Cc2c[nH]c4ccccc24)CO3)cc1F [Compound 7i, (3R,7aR)-3-((1H-indol-3-yl)methyl)-7a-(3-fluoro-4-methoxyphenyl)tetrahydropyrrolo[2,1-b]oxazol-5(6H)-one]  84 ± 7%
2. O=C1CC[C@]2(c3ccc(-c4ccncc4)cc3)OC[C@@H](Cc3c[nH]c4ccccc34)N12 [Compound 7t, (3R,7aR)-3-((1H-indol-3-yl)methyl)-7a-(4-(pyridin-4-yl)phenyl)tetrahydropyrrolo[2,1-b]oxazol-5(6H)-one]  75 ± 14%
3. O=C1CC[C@]2(c3ccc(-c4ccc5c(c4)OCCO5)cc3)OC[C@@H](Cc3c[nH]c4ccccc34)N12 [Compound 7u, (3R,7aR)-3-((1H-indol-3-yl)methyl)-7a-(4-(2,3-dihydrobenzo[b][1, 4]dioxin-6-yl)phenyl)tetrahydropyrrolo[2,1-b]oxazol-5(6H)-one]  67 ± 6%
4. O=C1CC[C@]2(c3ccc(-c4ccc(Cl)cc4)cc3)OC[C@@H](Cc3c[nH]c4ccccc34)N12 [Compound 7n, (3R,7aR)-3-((1H-indol-3-yl)methyl)-7a-(4’-chloro-[1,1’-biphenyl]-4-yl)tetrahydropyrrolo[2,1-b]oxazol-5(6H)-one]  65 ± 13%
5. CC(=O)n1cc(C[C@@H]2CO[C@@]3(c4ccc(Cl)cc4)CCC(=O)N23)c2ccccc21 [Compound 7l, (3R,7aR)-3-((1-acetyl-1H-indol-3-yl)methyl)-7a-(4-chlorophenyl)tetrahydropyrrolo[2,1-b]oxazol-5(6H)-one]  63 ± 13%
6. CC(C)(C)OC(=O)n1cc(C[C@@H]2CO[C@@]3(c4ccc(Cl)cc4)CCC(=O)N23)c2ccccc21 [Compound 7m, tert-butyl 3-(((3R,7aR)-7a-(4-chlorophenyl)-5-oxohexahydropyrrolo[2,1-b]oxazol-3-yl)methyl)-1H-indole-1-carboxylate]  61 ± 9%
7. O=C1CC[C@]2(c3ccc(-c4ccc(O)cc4)cc3)OC[C@@H](Cc3c[nH]c4ccccc34)N12 [Compound 7p, (3R,7aR)-3-((1H-indol-3-yl)methyl)-7a-(4’-hydroxy-[1,1’-biphenyl]-4-yl)tetrahydropyrrolo[2,1-b]oxazol-5(6H)-one]  56 ± 1%
8. O=C1CC[C@]2(c3ccc(-c4ccc(CO)cc4)cc3)OC[C@@H](Cc3c[nH]c4ccccc34)N12 [Compound 7q, (3R,7aR)-3-((1H-indol-3-yl)methyl)-7a-(4’-(hydroxymethyl)-[1,1’-biphenyl]-4-yl)tetrahydropyrrolo[2,1-b]oxazol-5(6H)-one]  55 ± 1%
9. CCn1cc(C[C@@H]2CO[C@@]3(c4ccc(Cl)cc4)CCC(=O)N23)c2ccccc21 [Compound 7k, (3R,7aR)-7a-(4-chlorophenyl)-3-((1-ethyl-1H-indol-3-yl)methyl)tetrahydropyrrolo[2,1-b]oxazol-5(6H)-one]  40 ± 5%
10. O=C1CC[C@]2(c3ccc(-c4cccc(Cl)c4)cc3)OC[C@@H](Cc3c[nH]c4ccccc34)N12 [Compound 7r, (3R,7aR)-3-((1H-indol-3-yl)methyl)-7a-(3’-chloro-[1,1’-biphenyl]-4-yl)tetrahydropyrrolo[2,1-b]oxazol-5(6H)-one]  17 ± 1%
11. O=C1CC[C@]2(c3ccc(Cl)cc3)OC[C@@H](Cc3c[nH]c4ccccc34)N12 [Compound 7c, (3R,7aR)-3-((1H-indol-3-yl)methyl)-7a-(4-chlorophenyl)tetrahydropyrrolo[2,1-b]oxazol-5(6H)-one]  11 ± 1%
12. Cc1ccc([C@]23CCC(=O)N2[C@H](Cc2c[nH]c4ccccc24)CO3)cc1Cl [Compound 7h, (3R,7aR)-3-((1H-indol-3-yl)methyl)-7a-(3-chloro-4-methylphenyl)tetrahydropyrrolo[2,1-b]oxazol-5(6H)-one]  11 ± 2%
13. CC1CC(=O)N2C(Cc3c[nH]c4ccccc34)COC12c1ccc(Cl)cc1 (stereo not drawn) [Compound 7j]  8%
